Where “and” joins values, the source holds several entries; their conditions need not be identical. Equal entries are not always repeated. Where two headings read alike, the source gives them in different places.
What was measured:
Assay type in all cases: cell-based, human
[1] = test system: PBMC derived from naïve donors; assay: Cytokine secretion (quantitative ELISA) by PBMC from naïve donors; settings: for donors with positive (x>0.1 ng/ml) IL-4 secretion / donors with positive (x>0.1 ng/ml) IL-12 secretion / donors with positive (x>0.1 ng/ml) IL-2 secretion: 48 hrs stimulation, FIG. 7A
[2] = test system: naïve peripheral blood mononuclear cells (PBMC); assay: Proliferation ([3H] Thymidine) of PBMC from naïve donors stimulated with VXL tuberculosis vaccine candidates; settings: for proliferation in donors which also manifested response to PPD: PPD positive (SI≥2) naïve PBMC, FIG. 3B; for proliferation in donors which also manifested response to PPD / positive proliferation in donors which also manifested response to TT / SI and coverage in the total 11 donors / proliferation in PPD positive versus PPD negative donors: in words; for positive proliferation in donors which also manifested response to TT: TT positive (SI≥2) naïve PBMC, FIG. 3A; for SI and coverage in the total 11 donors: in comparison with the positive controls; for proliferation in PPD positive versus PPD negative donors: naïve PBMC, FIG. 4
[3] = test system: anti-VXL VCs T cell lines from naïve donors; assay: FACS phenotype of anti-VXL T cell lines (CD44high, CD62Lhigh); settings: FIG. 14; for CD44high activated effector cells in CD8+ / CD62Lhigh memory cells in CD8+: after the 3rd stimulation; for CD62Lhigh memory cells in CD4+ / CD44high activated effector cells in CD4+: already after the 1st stimulation
[4] = test system: anti-VXL T cell lines after the 3rd stimulation; assay: Intra-cellular staining (ICS) FACS for IFN-gamma and IL-4 in T cell lines; settings: 6 h stimulation with peptide-loaded autologous macrophages, FIG. 15
[5] = test system: autologous macrophages infected with live Mtb; settings: peptide-induced T cell lines from naïve donors and TB patients, FIG. 12; in words
[6] = test system: autologous macrophages loaded with VXL VCs; assay: Cytotoxic activity of VXL-induced T cell lines against loaded autologous macrophages (35S Methionine); settings: T cell line induced by the peptide; in words
[7] = test system: anti-VXL effector T-cell lines; assay: IFN-gamma released by effector T cell lines during the lysis process (ELISA)
[8] = donor #15 (FIG. 12B), naïve donor T cell line
[9] = patient #18 (FIG. 12D), Mtb patient T cell line

Sequence | donors with positive (x>0.1 ng/ml) IL-4 secretion [1] [%] | donors with positive (x>0.1 ng/ml) IL-12 secretion [1] [%] | proliferation in donors which also manifested response to PPD [2] | positive proliferation in donors which also manifested response to TT [2] | donors with positive (x>0.1 ng/ml) IL-2 secretion [1] [%] | CD44high activated effector cells in CD8+ [3] [%] | CD62Lhigh memory cells in CD8+ [3] [%] | CD62Lhigh memory cells in CD4+ [3] [%] | maximal percentage of specific IFN-gamma produced by CD8+ T-cells [4] [%] | lysis of Mtb infected macrophages [5] | average SI [2] | SI and coverage in the total 11 donors [2] | proliferation in PPD positive versus PPD negative donors [2] | average SI ([2]; pure (>90%) peptide, naïve donors, FIG. 9A) | lysis against PPD-loaded targets [6] | IFN-gamma detected [7, 8] [µg/mL] | IFN-gamma detected [7, 9] [µg/mL] | IFN-gamma detected [7] | CD44high activated effector cells in CD4+ [3] [%] | IL-4 secretion ([1]; in words)
MAAMWRRRPLSSALLSFGLLLGGLPLAAPPLAGA (listed as Mycobacterium tuberculosis) [VXL207, signal peptide of Protease, Tuberculosis] | 25 | 8.6 | – | – | – | – | – | – | – | – | – | – | – | – | – | – | – | – | – | –
MKIRLHTLLAVLTAAPLLLAAAGCGS [VXL200] | – | – | stronger | to some extent | 25 | – | – | – | – | – | – | – | – | – | – | – | – | – | – | –
MKRGLTVAVAGAAILVAGLSGCSS [VXL203] | – | 8.6 | – | to some extent | – | 79 | 17 | 39 | 8.2 | high and specific lysis | 1.8+/−0.8 | to some extent | more potent in donors which were not exposed in the past to the tuberculosis Bactria | 5.7+/−6.8 | specific lysis | 3.8 | 11 | – | – | –
MKTGTATTRRRLLAVLIALALPGAAVA (listed as Mycobacterium tuberculosis) [VXL206, signal peptide of Hypothetical protein MT0 213, Tuberculosis] | – | 8.6 | – | – | – | – | – | – | – | – | – | – | – | – | – | – | – | – | – | –
MLLRKGTVYVLVIRADLVNAMVAHA (listed as Mycobacterium tuberculosis) [VXL212, signal peptide of Uncharacterized protein Rv1334/MT1376 precursor, Tuberculosis] | – | 58.3 | stronger | more positive | – | – | – | – | – | lower lysis levels | – | highest SI and widest coverage | even stronger in donors with previous exposure to the tuberculosis Bactria | – | – | – | 7.5 | 5.6 µg/mL and 3.6 µg/mL | – | –
MLVLLVAVLVTAVYAFVHA (listed as Mycobacterium tuberculosis) [VXL211, signal peptide of Uncharacterized protein Rv0476/MT04941 precursor, Tuberculosis] | – | 58.3 | stronger | more positive | 91.6 | 80 | 40.9 | – | 10.6 | moderate lysis | – | highest SI and widest coverage | even stronger in donors with previous exposure to the tuberculosis Bactria | – | specific lysis | 5.9 | – | 9.2 µg/mL and 7.8 µg/mL | 41 | –
MRFAQPSALSRFSALTRDWFTSTFAAPTAAQA (listed as Mycobacterium tuberculosis) [VXL208, signal peptide of ATP dependent helicase putative, Tuberculosis] | 25 | – | stronger | more positive | – | 50.2 | 32.1 | 22 | – | lower lysis levels | – | highest SI and widest coverage | even stronger in donors with previous exposure to the tuberculosis Bactria | – | – | 3.6 | – | 2.6 µg/mL | 52 | some secretion of IL-4
MRPSRYAPLLCAMVLALAWLSAVAG (listed as Mycobacterium tuberculosis) [VXL214, signal peptide of Putative lipoprotein IpqV precursor, Tuberculosis] | – | – | – | to some extent | – | – | – | – | – | – | – | – | – | – | – | – | – | – | – | –
MTDVSRKIRAWGRRLMIGTAAAVVLPGLVGLAGGAATAGA (listed as Mycobacterium tuberculosis) [VXL201, signal peptide of Antigen 85B, Tuberculosis] | – | – | stronger | more positive | – | – | – | – | – | high and specific lysis | – | highest SI and widest coverage | even stronger in donors with previous exposure to the tuberculosis Bactria | – | – | – | 14 | 6 µg/mL and 10 µg/mL and 11.3 µg/mL | – | –
